Measurements taken from US5180742A, “Quinone derivatives, their production and use” (Takeda Chemical Industries, Ltd., priority 1984, dated 1993).

System: lipid peroxides production in rat brain homogenates
Assay: Inhibitory action on lipid peroxides production in rat brain homogenates (thiobarbituric acid method)
Format: biochemical, rat (SD)
Details: n = 4-6
Procedure: Inhibitory Action on Lipid Peroxides Production in Rat Brain Homogenates
The male SD rat brain tissue was used as 5% homogenate in phosphate-buffered solution. After incubation of the homogenate for 1 hour at 37° C., the amount of lipid peroxides produced was determined by the thiobarbituric acid method according to the description of Ohkawa et al. (Analytical Biochemistry, 95: 551, 1979)
Test compounds were used as a solution of dimethylsulfoxide. The inhibitory action on lipid peroxide production was expressed as a % inhibition as compared with the amount of production in the vehicle group. Results

## tocopherol [reference compound]
10^-4 M
  Inhibition of lipid peroxides production: 46.5 ± 2.5%
10^-5 M
  Inhibition of lipid peroxides production: 51.8 ± 10.2%
10^-6 M
  Inhibition of lipid peroxides production: 0%
